{
  "source": "patent US20210369812A1",
  "about": "“OSTEOINDUCTIVE PEPTIDES, COMPOSITIONS, IMPLANTS, AND METHODS OF USE” (The Board of Regents of the University of Oklahoma, priority 2018, published 2021)",
  "key": {"[1]": {"tested_on": "human mesenchymal stem cells (hMSCs)", "assay": "Live cell binding through immunofluorescence", "type": "cell-based", "settings": "10^12 phages/ml", "description": "Human mesenchymal stem cells (hMSCs) were grown to roughly 60% plate coverage in a 48-well tissue culture plate according to the company Lonza's culturing protocols. […] The hMSCs were then blocked with 0.5% BSA (dissolved in cell media) for 1 hour. The cell media for the hMSCs was then replaced with 1 ml of new cell media having of concentration of 10^12 phages/ml. Next, the plates were washed once with 400 μl of phosphate buffered saline (PBS) at a pH of 7.4. The hMSCs were then incubated with Anti-M13 Bacteriophage Coat Protein g8p antibody [RL-ph2] (ab9225) at a 1:1000 dilution in cell media (200 μl per well). The wells were then washed again with PBS (400 μl per wash). Next, the hMSCs were incubated with the secondary antibody, Goat-anti mouse AF-488 (Abcam) for 1 hour (1 ug/ml final concentration of antibody in media). The wells were then washed again with PBS (400 μl per wash). A Hoechst nuclear stain was used to stain the nuclei (PureBlu™ Hoechst 33342 Nuclear Staining Dye #1351304 from BioRad) according to the company's protocol. Cell Mask™ Orange Plasma Membrane Stain was used to stain membranes (CellMask™ Orange Plasma Membrane Stain Catalog number: C10045 from Thermo Fisher Scientific) according to the company's protocol. The phages binding to the cells were then imaged on a Nikon Eclipse Ti fluorescent microscope."}, "[2]": {"tested_on": "rat radial bone defect model", "assay": "Rat radial bone defect model, Micro-CT", "type": "in vivo", "settings": "phage-coated titanium scaffold seeded with hMSCs; 4 weeks", "description": "The titanium alloy scaffolds were rinsed 3 times in distilled water followed by autoclaving. The scaffolds were then coated in poly-L-lysine by soaking in 2.5 ml of poly-L-lysine per 5 scaffolds in a 24-well cell culture plate for 30 minutes. The poly-L-lysine was then discarded, and the scaffolds were allowed to dry in a sterile hood overnight. In a sterile cell culture hood, 2 scaffolds were loaded into the sterile freeze casting holder (sterilized by autoclaving). 2 ml of sterile, filtered phage solution (3×10^13 phages/ml) was pipetted into the casting holder and directly into the pores of the titanium scaffolds. The solution was allowed to incubate at room temperature for 30 minutes so that phages could stick better to the scaffold. The scaffolds and phage solution were then freeze casted in the double-sided freeze casting machine with a temperature drop of 3° C./min on the lower contact point and a constant 0° C. on the upper contact point. The final temperature for the lower contact point was −135° C. The frozen scaffold and solution were then freeze dried overnight. For cell seeding, the scaffold was then soaked overnight in cell medium followed by seeding 3.6×10^4 hMSCs onto the scaffold the next day in new medium. After 1 day of culturing, the scaffolds were implanted into the rat radial bone defect model. […]"}},
  "note": "Entries after “also recorded” stand apart in the source; their conditions may differ.",
  "data": [
    {"sequence": "SGTQDSMVGWNK (Completely synthesized in the lab - Ph.D.-12 Phage Display Peptide Library Kit (New England Biolabs))", "values": [
      {"measurement": "Binding of peptide-bearing phages to live hMSCs", "setting": "[1]", "value": "bound to what appeared to be the same location as the outer membrane; also recorded: demonstrated an ability to bind to the outer membrane"}
    ]},
    {"sequence": "VHVPLHRGAVSA (Completely synthesized in the lab - Ph.D.-12 Phage Display Peptide Library Kit (New England Biolabs))", "values": [
      {"measurement": "Healing of bone defect (Micro-CT)", "setting": "[2]", "value": "Increased healing was best observed"},
      {"measurement": "Binding of peptide-bearing phages to live hMSCs", "setting": "[1]", "value": "bound to what appeared to be the same location as the outer membrane; also recorded: demonstrated an ability to bind to the outer membrane"}
    ]}
  ]
}
